PMC11364019, “Capturing the blue-light activated state of the Phot-LOV1 domain from Chlamydomonas reinhardtii using time-resolved serial synchrotron crystallography” (IUCrJ, 2024)

Molecular target: T1, CrPhotLOV1 (Chlamydomonas reinhardtii, UniProt Q8LPD9)
T1 construct: gene PHOT; LOV1 domain, residues 16-133; N-terminal His-tag (pET16b) removed by limited trypsin proteolysis; expressed in E. coli BL21 DE3
T1 sequence (Q8LPD9 16-133): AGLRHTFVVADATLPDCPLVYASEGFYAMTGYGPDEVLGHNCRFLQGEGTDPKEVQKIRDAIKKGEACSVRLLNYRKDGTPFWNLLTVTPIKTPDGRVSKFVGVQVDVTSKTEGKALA
Test: X-ray crystallography (cryo, serial and time-resolved serial synchrotron); FTIR difference spectroscopy on crystals
Format: binding
Settings: dark state: non-covalent; after blue light: covalent thioether adduct of Cys57 S-gamma to FMN C4a; crystals at pH 6.5; 100 K and room temperature

Which “X-ray crystallography (cryo, serial and time-resolved serial synchrotron); FTIR” value does the source give for Cc1cc2nc3c(=O)[nH]c(=O)nc-3n(C[C@H](O)[C@H](O)[C@H](O)COP(=O)(O)O)c2cc1C [FMN, flavin mononucleotide] here?
The value was “light-induced formation of the thioether covalent adduct”.
